# Reference: patent publication US20240132480A1, “INHIBITORS OF MYCOBACTERIUM TUBERCULOSIS LIPOAMIDE DEHYDROGENASE” (Cornell University, priority 2021, published 2024)
# Read-outs that look alike come from different tables or passages of the source.
# Legend:
# [1] = microsomes
# Mtb Lpd = Mtb Lpd (Mycobacterium tuberculosis (strain ATCC 25618 / H37Rv), UniProt P9WHH9); assay type: biochemical
# [2] = 30 min preincubation, read-out: LPD IC50 (μM) w/ 30 min preincubation
SMILES,Human Liver Microsome Stability [1] [µL/min/mg],IC50 (Mtb Lpd; read-out: LPD IC50) [µM],IC50 (Mtb Lpd; [2]) [µM]
"COc1ccc(NC(=O)CN(C)S(=O)(=O)c2cc(C)cc3c2NC(=O)C3)cc1Cl [Example 2, N-(3-chloro-4-methoxyphenyl)-2-((N,5-dimethyl-2-oxoindoline)-7-sulfonamido)acetamide]",490,,
Cc1cc(S(=O)(=O)N(C)CC(=O)Nc2ccn(C)c(=O)c2)c2[nH]ncc2c1 [Example 6],-11,,
Cc1cc(S(=O)(=O)N2CCC[C@H]2C(=O)Nc2ccn(C)c(=O)c2)c2[nH]ncc2c1 [Example 7],18,0.0513,
COc1ccc(NC(=O)CN(C)S(=O)(=O)c2cc(C(F)F)cc3cn[nH]c23)cc1C [Example 8],534,0.0263,
COc1ccc(NC(=O)CN(C)S(=O)(=O)c2cc(C)cc3c(C)n[nH]c23)cc1C [Example 9],>768,0.0273,
Cc1cc2c(c(S(=O)(=O)N(C)CC(=O)Nc3ccc(N4CCCCC4)c(C)c3)c1)CC=C2 [Example 11],105,0.0341,
"CCn1ccc(NC(=O)CN(C)S(=O)(=O)c2cc(C)cc3cn[nH]c23)cc1=O [Example 14, 2-((N,5-dimethyl-1H-indazole)-7-sulfonamido)-N-(1-ethyl-2-oxo-1,2-dihydropyridin-4-yl)acetamide]",-12,0.0531,
"CCN(CC(=O)Nc1ccc(OC)c(Cl)c1)S(=O)(=O)c1cc(C)cc2cn[nH]c12 [Example 15, N-(3-chloro-4-methoxyphenyl)-2-((N-ethyl-5-methyl-1H-indazole)-7-sulfonamido)acetamide]",528,0.0417,
Cc1cc(S(=O)(=O)N(C)CC(=O)Nc2ccn(C(C)C)c(=O)c2)c2[nH]ncc2c1 [Example 16],35,0.0508,
Cc1cc(NC(=O)CN(C)S(=O)(=O)c2c(C)c(C)cc3cn[nH]c23)ccc1N1CCOCC1 [Example 19],253,0.0469,
CCc1ccc(NC(=O)CN(C)S(=O)(=O)c2cc(C)cc3cc[nH]c23)cc1C [Example 21],328,0.136,
Cc1cc(S(=O)(=O)N(C)CC(=O)Nc2ccn(C)c(=O)c2)c2[nH]ccc2c1 [Example 23],19,0.0993,
Cc1cc(S(=O)(=O)N(C)CC(=O)Nc2ccn3nccc3c2)c2[nH]ncc2c1 [Example 25],275,0.0204,
CCN(CC(=O)Nc1ccc2c(c1)OCCN2C)S(=O)(=O)c1cc(C)cc2cn[nH]c12 [Example 88],46,,
CC(=O)N1CCOc2cc(NC(=O)CN(C)S(=O)(=O)c3cc(C)cc4cn[nH]c34)ccc21 [Example 90],18,,
Cc1cc(S(=O)(=O)N(C)CC(=O)Nc2ccc3c(c2)OCCN3C)c2[nH]nc(C)c2c1 [Example 92],19,,
CN(CC(=O)Nc1ccn(C)c(=O)c1)S(=O)(=O)c1cc(F)cc2cn[nH]c12 [Example 93],6,,
Cc1cc(S(=O)(=O)N(C)CC(=O)NCc2ccccc2C)c2[nH]ncc2c1 [Example 109],,0.107,
Cc1cccc(CNC(=O)CN(C)S(=O)(=O)c2cc(C)cc3c[nH]nc23)c1 [Example 110],,0.041,

SMILES,Human Liver Microsome Stability [1] [µL/min/mg],IC50 (Mtb Lpd; read-out: LPD IC50) [µM],IC50 (Mtb Lpd; [2]) [µM]
Cc1ccc(CNC(=O)CN(C)S(=O)(=O)c2cc(C)cc3cn[nH]c23)cc1 [Example 111],,0.0522,
Cc1cc(S(=O)(=O)N(C)CC(=O)N[C@H]2CCCOC2)c2[nH]ncc2c1 [Example 112],,0.109,
Cc1cc(S(=O)(=O)N(C)CC(=O)N[C@@H]2CCCOC2)c2[nH]ncc2c1 [Example 113],,0.184,
Cc1cc(S(=O)(=O)N(C)CC(=O)NC2CCc3cnccc32)c2n[nH]cc2c1 (centres unmarked) [Example 114],,0.0954,
Cc1cc(S(=O)(=O)N(C)CC(=O)Nc2nc3cnccc3s2)c2n[nH]cc2c1 [Example 115],,0.0276,
Cc1cc(S(=O)(=O)N(C)CC(=O)Nc2nc3c(s2)CCOC3)c2n[nH]cc2c1 [Example 116],,0.0771,
"CCc1cc(S(=O)(=O)N(C)CC(=O)Nc2ccn(C)c(=O)c2)c2n[nH]cc2c1 [Example 117, 2-((5-ethyl-N-methyl-1H-indazole)-7-sulfonamido)-N-(1-methyl-2-oxo-1,2-dihydropyridin-4-yl)acetamide]",,0.05,
CCCc1cc(S(=O)(=O)N(C)CC(=O)Nc2ccn(C)c(=O)c2)c2[nH]ncc2c1 [Example 118],,0.0702,
Cc1cc(S(=O)(=O)N2CC[C@@H](C(=O)Nc3ccc(N4CCOCC4)c(Cl)c3)C2)c2n[nH]cc2c1 [Example 119],,0.0348,
Cc1cc(S(=O)(=O)N2CCC(C(=O)Nc3ccc4c(c3)OCCN4C)C2)c2[nH]ncc2c1 (centres unmarked) [Example 120],,0.0197,
Cc1cc(S(=O)(=O)N(C)CC(=O)Nc2ccc(N3CCOCC3)c(Cl)c2)c2[nH]ncc2c1 [Example 126],,0.019,0.015
Cc1cc(S(=O)(=O)N(C)CC(=O)NC2(C)CCCCC2)c2n[nH]cc2c1 [Example 127],,1.14,
Cc1cc(S(=O)(=O)N2CC[C@H]2C(=O)NC2CCOCC2)c2[nH]ncc2c1 [Example 128],,1.07,
Cc1cc(S(=O)(=O)N(C)CC(=O)Nc2ccn3c(C(F)(F)F)ncc3c2)c2n[nH]cc2c1 [Example 130],,0.0345,
Cc1cc(S(=O)(=O)N2CC[C@H]2C(=O)NC2CCc3ccccc32)c2[nH]ncc2c1 (some centres unmarked) [Example 131],,2.52,
"Cc1cc(S(=O)(=O)N(C)CC(=O)Nc2ccn(C)c(=O)c2)c2nn[nH]c2c1 [Example 132, 2-((N,5-dimethyl-1H-benzo[d][1,2,3]triazole)-7-sulfonamido)-N-(1-methyl-2-oxo-1,2-dihydropyridin-4-yl)acetamide]",,0.386,
"Cc1cc(S(=O)(=O)N(C)CC(=O)Nc2ccn(C)c(=O)c2)c2[nH][nH]c(=O)c2c1 [Example 133, 2-((N,5-dimethyl-3-oxo-2,3-dihydro-1H-indazole)-7-sulfonamido)-N-(1-methyl-2-oxo-1,2-dihydropyridin-4-yl)acetamide]",,0.0706,
Cc1cc(S(=O)(=O)N(C)CC(=O)Nc2ccn(C)c(=O)c2)c2[nH]c(C)cc2c1 [Example 134],,0.963,
Cc1cc(S(=O)(=O)N2CC[C@H]2C(=O)NC2CCCN(C)C2)c2[nH]ncc2c1 (some centres unmarked) [Example 135-R],,2.65,

SMILES,Human Liver Microsome Stability [1] [µL/min/mg],IC50 (Mtb Lpd; read-out: LPD IC50) [µM],IC50 (Mtb Lpd; [2]) [µM]
Cc1cc(S(=O)(=O)N2CC[C@H]2C(=O)NC2CCCN(C)C2)c2[nH]ncc2c1 (some centres unmarked) [Example 135-S],,5.87,
"Cc1cc(S(=O)(=O)N(C)CC(=O)Nc2nc3c(s2)CCN(C)C3)c2n[nH]cc2c1 [Example 137, 2-(N,5-dimethyl-1H-indazole-7-sulfonamido)-N-(5-methyl-4,5,6,7-tetrahydrothiazolo[4,5-c]pyridin-2-yl)acetamide]",,0.025,
Cc1cc(S(=O)(=O)N2CC[C@H]2C(=O)NC2CCc3ccccc32)c2[nH]ncc2c1 (some centres unmarked) [Example 138],,> 10,
"Cc1cc(S(=O)(=O)N2CC[C@H]2C(=O)N[C@H]2CCCOC2)c2[nH]ncc2c1 [Example 141, (2S)-1-[(5-methyl-1H-indazol-7-yl)sulfonyl]-N-[(3S)-tetrahydropyran-3-yl]azetidine-2-carboxamide]",,0.811,
"Cc1cc(S(=O)(=O)N2CC[C@H]2C(=O)N[C@@H]2CCCOC2)c2[nH]ncc2c1 [Example 142, (2S)-1-[(5-methyl-1H-indazol-7-yl)sulfonyl]-N-[(3R)-tetrahydropyran-3-yl]azetidine-2-carboxamide]",,0.47,
"Cc1cc(S(=O)(=O)N(C)CC(=O)Nc2nc3c(s2)NCCC3)c2n[nH]cc2c1 [Example 154, 2-((N,5-dimethyl-1H-indazole)-7-sulfonamido)-N-(4,5,6,7-tetrahydrothiazolo[5,4-b]250yclopro-2-yl)acetamide]",,0.05,
CCN(CC(=O)Nc1ccc2c(c1)OCCN2C1COC1)S(=O)(=O)c1cc(C)cc2c[nH]nc12 [Example 155],,0.0246,
Cc1cc(S(=O)(=O)N(C)CC(=O)Nc2ccc3c(c2)OCCN3C(C)C)c2n[nH]cc2c1 [Example 157],,0.014,
"CN(CC(=O)Nc1ccn(C)c(=O)c1)S(=O)(=O)c1cc(C2(O)CC2)cc2cn[nH]c12 [Example 172, 2-((5-(1-hydroxycyclopropyl)-N-methyl-1H-indazole)-7-sulfonamido)-N-(1-methyl-2-oxo-1,2-dihydropyridin-4-yl)acetamide]",,0.654,
"O=C(Nc1ccc2c(c1)OCCN2C1COC1)[C@@H]1CCN1S(=O)(=O)c1cc(C(F)F)cc2cn[nH]c12 [Example 180, (S)-1-((5-(difluoromethyl)-1H-indazol-7-yl)sulfonyl)-N-(4-(oxetan-3-yl)-3,4-dihydro-2H-benzo[b][1,4]oxazin-7-yl)azetidine-2-carboxamide]",61,,
"Cc1cc(S(=O)(=O)N(C)CC(=O)Nc2ccn(C)c(=O)c2)c2[nH]nc(C#N)c2c1 [Example 182, 2-((3-cyano-N,5-dimethyl-1H-indazole)-7-sulfonamido)-N-(1-methyl-2-oxo-1,2-dihydropyridin-4-yl)acetamide]",,0.724,
CC#CCNC(=O)CN(C)S(=O)(=O)c1cc(C)cc2cc(C#N)[nH]c12 [Example 210],39,,
Cc1cc(S(=O)(=O)N2CCC(C(=O)Nc3ccn(C)c(=O)c3)C2)c2[nH]ncc2c1 (centres unmarked) [Example 213],,1.92,
Cc1cc(S(=O)(=O)N(C)CC(=O)Nc2ccn3nccc3c2)c2[nH]c(C#N)cc2c1 [Example 220],,,0.019
Cc1cc(S(=O)(=O)N(C)CC(=O)Nc2ccc3c(c2)CCCO3)c2[nH]c(C#N)cc2c1 [Example 221],,,0.015
Cc1cc(S(=O)(=O)N(C)CC(=O)Nc2cc(=O)n(C)cn2)c2[nH]c(C#N)cc2c1 [Example 222],,,0.027
CC#CCN(C)C(=O)CN(C)S(=O)(=O)c1cc(C)cc2cc(C#N)[nH]c12 [Example 226],,,0.368
C/C=C/CNC(=O)CN(C)S(=O)(=O)c1cc(C)cc2cc(C#N)[nH]c12 [Example 227],,,0.018
